Data reported in patent publication US20190054054A1, “Methods reducing or preventing oxidation of high density lipoprotein (HDL)” (Amarin Pharmaceuticals Ireland Limited, priority 2017, published 2019).

Legend:
HUVECs [1] = assay: NO and ONOO^− release from HUVECs treated concomitantly with agents and oxLDL (Example 11, Objective 2); type: cell-based, human; settings: oxLDL 11 mg/dL treated 30 min with agents, each at 10 μM; cells exposed 60 min
Protocol: (§1) The omega-3 fatty acid, cis-5,8,11,14,17-eicosapentaenoic acid (EPA) and docosahexaenoic acid (DHA) were purchased from Sigma-Aldrich (Saint Louis, Mo.) and solubilized in redistilled ethanol to 11 mM under nitrogen atmosphere. EPA and DHA stock solutions were stored at −20° C. until use.
(§2) Human umbilical vein endothelial cells (HUVECs) were obtained from healthy, female donors and isolated into primary, proliferating cell cultures (Clonetics, San Diego, Calif.). The cells were incubated in 95% air/5% CO2 at 37° C. and passaged by an enzymatic (trypsin) procedure. The confluent cells (4 to 5×10^5 cells/35 mm dish) were plated with minimum essential medium containing 3 mM L-arginine and 0.1 mM BH4 [(6R)-5,6,7,8-tetrahydrobiopterin]. Before experimental use, the cells (from second or third passage) were rinsed twice with Tyrode-HEPES buffer with 1.8 mM CaCl2.
(§3) Venous blood was collected from healthy volunteers into vacutainer tubes containing sodium EDTA. Plasma was separated by centrifugation at 3000 g for 25 min at 4° C. and adjusted to a density of 1.020 g/mL with KBr. Triglyceride-rich lipoproteins (TGRL) and LDL fractions were isolated by sequential centrifugation at 70,000 rpm at 4° C. in a Beckman LE-80 ultracentrifuge using a Beckman 50.4Ti rotor (Beckman Coulter, Inc., Fullerton, Calif.). The TGRL fraction (with a relative density of <1.020) was aspirated from the top of the centrifugate and discarded, leaving an LDL-enriched infranate (with a relative density of 1.020-1.063). The LDL subfraction was retained for additional experimentation. Plasma and lipoprotein fractions were maintained at 4° C. and protected from excessive exposure to light. Prior to oxidation experiments, EDTA was removed from the lipoprotein fraction using PD-10 desalting columns (GE Healthcare, Piscataway N.J.). After equilibration of the column with phosphate buffered saline (PBS), 2.5 mL of the lipoprotein fraction was loaded on the column and the flow-through discarded. The lipoprotein was then eluted with 3 mL of PBS. The LDL fractions were further diluted with PBS to obtain a 100 μg/mL apoB100 concentration.
(§4) LDL underwent oxidation following the addition of 10 μM CuSO4. […] Sample TBARS concentrations were determined spectrophotometrically by measuring sample absorbances against a standard curve derived from the hydrolysis of 1,1,3,3-tetramethoxypropane. […]
(§5) The amperometric method (with a response time of 0.1 ms) provides a quantitative signal (current) that is directly proportional to changes (from basal levels) in NO or ONOO^− concentration. […] Basal NO or ONOO^− levels were measured by differential pulse voltammetry in separate experiments. […]

HUVECs [2] = assay: NO and ONOO^− release from pretreated HUVECs exposed to native LDL undergoing oxidation (Example 11, Objective 3); type: cell-based, human; settings: cells pretreated 30 min, agents each at 10 μM; native LDL 11 mg/dL pretreated with the same agents under auto-oxidation; 60 min
Protocol: as §1, §2, §3, §4, §5

unfractionated LDL = assay: Copper-induced oxidation of unfractionated LDL, TBARS after 2 hr (Example 6); type: biochemical, human
[3] = Glucose- and peroxidation-induced cholesterol domain formation, small angle x-ray diffraction (Example 4); settings: 1:30 mole ratio; for effect on membrane structure as compared to control: at the start of the experiment (0 hours)
Protocol: Samples were shell-dried under nitrogen gas and placed under vacuum for 1 h to remove residual solvent. […] Lipid suspensions were then vortexed for 3 min at ambient temperature to form MLVs. […] Membrane lipid vesicles were oriented for x-ray diffraction analysis as described by others (e.g., Herbette et al., Biophys. […] Briefly, a 100 μL aliquot (containing 250 μg MLV) was aspirated from each sample and transferred to a Lucite® sedimentation cell fitted with an aluminum foil substrate upon which a given sample could be collected by centrifugation. Samples were then loaded into a Sorvall AH-629 swinging bucket rotor (DuPont Corp., Wilmington, Del.) and centrifuged at 35,000 g, 5° C., for 90 min. After centrifugal orientation, sample supernatants were aspirated and aluminum foil substrates, each supporting a single membrane pellet, were removed from the sedimentation cells. Sample pellets were dried for 5-10 min at ambient conditions, mounted onto curved glass supports, and placed in hermetically-sealed, brass or glass containers (for immediate analysis or temporary storage, respectively). All x-ray diffraction experiments were conducted at 20° C., 74% relative humidity. The latter was established by exposing membrane samples to saturated solutions of L-(+) tartaric acid (K2C4H4O6.½H2O). Samples were incubated at these conditions for at least 1 hour prior to experimental analysis. Oriented membrane samples were aligned at grazing incidence with respect to a collimated, mono-chromatic CuKα x-ray beam (Kα1 and Kα2 unresolved; λ=1.54 Å) produced by a Rigaku Rotaflex RU-200, high-brilliance microfocus generator (Rigaku-MSC, The Woodlands, Tex.) as previously described (Mason et al., Biophys. J., vol. 55(4), pages 769-778 (1989)). Diffraction data were collected on a one-dimensional, position-sensitive electron detector (Hecus X-ray Systems, Graz, Austria) at a sample-to-detector distance of 150 mm. […] The d-space for any given membrane multibilayer is a measurement of the unit cell periodicity of the membrane lipid bilayer (e.g., the distance from the center of one lipid bilayer to the next including surface hydration), and is calculated from Bragg's Law, h λ=2 d sin θ, where h is the diffraction order, λ is the wavelength of the x-ray radiation (1.54 Å), d is the membrane lipid bilayer unit cell periodicity, and θ is the Bragg angle equal to one-half the angle between the incident beam and scattered beam. […] Under the specific temperature and relative humidity conditions established for these experiments, the second-order, 17 Å cholesterol domain peak was well-delineated from other, neighboring cholesterol and phospholipid diffraction peaks and was thus used to quantitate relative cholesterol domain peak intensity. […]

CC/C=C\C/C=C\C/C=C\C/C=C\C/C=C\C/C=C\CCC(=O)O [DHA, docosahexaenoic acid]
NO (HUVECs [1]): 362 ± 39
ONOO^− (HUVECs [1]): 240 ± 27
NO (HUVECs [2]): 406 ± 40
ONOO^− (HUVECs [2]): 212 ± 26

CC/C=C\C/C=C\C/C=C\C/C=C\C/C=C\CCCC(=O)O [EPA, cis-5,8,11,14,17-eicosapentaenoic acid]
NO (HUVECs [1]): 385 ± 43
ONOO^− (HUVECs [1]): 232 ± 24
reduction of TBARS levels (unfractionated LDL; 10.0 μM, unfractionated LDL): 17%
NO (HUVECs [2]): 419 ± 37
ONOO^− (HUVECs [2]): 207 ± 24
inhibition of relative cholesterol domain peak intensity ([3]; 96-hour time point, compared to vehicle or vitamin E): more than 99%
effect on membrane structure as compared to control ([3]; glucose 200 mg/dL): no appreciable effect on membrane structure

Cc1c(C)c2c(c(C)c1O)CC[C@@](C)(CCC[C@H](C)CCC[C@H](C)CCCC(C)C)O2 [vitamin E, α-tocopherol]
effect on LDL oxidation (unfractionated LDL; 1.0 μM to 10.0 μM): did not inhibit LDL oxidation at any concentration
effect on cholesterol domain formation as compared to control ([3]; any experimental time point, glucose 200 mg/dL): no significant effect on cholesterol domain formation
effect on membrane structure as compared to control ([3]; glucose 200 mg/dL): no appreciable effect on membrane structure
